Results: patent publication US9732065B2, “Cyclic aminomethyl pyrimidine derivative” (Sumitomo Dainippon Pharma Co., Ltd., priority 2013, dated 2017)

How the values were obtained:
Type in all cases: in vivo
[1] = PK study in rat (bioavailability); details: plasma, oral vs intravenous administration
Method: In this study, the pharmacokinetics of the present compound can be evaluated. Specifically, a 7-week-old SD-type or WKY-type rat received the intravenous administration of a solution of the present compound in saline or the oral administration of a suspension of the present compound in carboxymethylcellulose or methylcellulose. Blood was collected from the rat at each time below.
Intravenous administration: 5 minutes, 15 minutes, 30 minutes, 1 hour, 2 hours, 4 hours, 6 hours, and 24 hours after administration
Oral administration: 15 minutes, 30 minutes, 1 hour, 2 hours, 4 hours, 6 hours, and 24 hours after administration
Plasma was collected from the blood, the levels of the present compound in the plasma were measured by a LC-MS method, and then the pharmacokinetic parameters were calculated on the basis of the level changes.

[2] = Brain penetration study in rat; details: brain and plasma, unbound brain-to-plasma drug concentration ratio
Method: In this study, the brain penetration of the present compound can be evaluated. Specifically, a 7-week-old SD-type or WKY-type rat received the subcutaneous administration of a solution of the present compound in saline or the oral administration of a suspension of the present compound in methylcellulose. Plasma and brain were collected from the treated rat 0.5 hour, 1 hour or 2 hours after the administration, and then the levels of the present compound in the plasma and the brain were measured by a LC-MS method.
The protein binding ratios of the present compound to the plasma and the brain were measured by an equilibrium dialysis method.
The levels of the present compound in the plasma and the brain as well as the plasma and brain protein binding ratios are applied to the following formula, and thus Kp,uu,brain (Unbound brain-to-plasma drug concentration ratio) can be calculated. Kp,uu,brain=(level of the present compound in the brain×(100−brain protein binding ratio (%))/100)/(level of the present compound in the plasma×(100−plasma protein binding ratio (%))/100)

SHR rat = assay: Inattention in SHR rat, Y-shaped maze test; details: oral, 1 mg/kg
Method: It is known that a SHR rat has a lower spontaneous alternation behavior ratio than a WKY rat which is a background animal through the Y-shaped maze test. Thus, the SHR rat was pretreated with the present compound to evaluate the pharmacological effect of the present compound on attention function. Specifically, a 4-week-old SHR rat received the oral administration of the present compound, and a spontaneous alternation behavior ratio in the rat was measured for 8 minutes from 30 minutes after the administration. The improved spontaneous alternation behavior ratio (%) was calculated as a numerical value on the basis of the spontaneous alternation behavior ratio in the vehicle administration group. In this study, a Y-shaped maze device (black acrylic: 450 mm×100 mm×350 mm, Horikawa Manufacturing Co., Ltd.) was used.

[3] = test system: rat after prenatal exposure to valproic acid; assay: Social impairments in rat after prenatal exposure to valproic acid, three-chamber test; details: oral, 1 mg/kg
Description: A rat exposed to valproic acid on the 12.5 days of fetal life has been widely used as an autistic rat model with high validity. It is known that the rat has a social cognitive disorder through the three-chamber test which is a test for evaluating sociability. Thus, the rat was pretreated with the present compound to evaluate the improved effect of the present compound on social cognition. In this study, a sociability cage (600 mm×400 mm×220 mm, Muromachi Kikai Co., Ltd.) was used. Specifically, a 3-week-old rat after prenatal exposure to valproic acid received the oral administration of the present compound, and the time that the rat stayed in close to another rat side or a novel object was measured for 10 minutes from 30 minutes after the administration. The ratio of the time for another rat side to the time for a novel object that is defined as 100% was calculated to evaluate the improvement ratio (%) of the present compound on the basis of the result of the vehicle-treated group. The improvement ratio after the oral administration of the compound of Example 5 (1 mg/kg) was 27.6%.

Row | bioavailability [1] | Kp uu [2] | Compound | spontaneous alternation behavior ratio (SHR rat) | time that the rat stayed in close to another rat side [3] | improvement ratio (%) ([3]; time for another rat side vs novel object, relative to vehicle)
1 | 16.8% | 1.97 | Cc1ncc(CN2CCC(c3ccccn3)CC2)c(N)n1 [Example 5, 2-Methyl-5-[4-(pyridin-2-yl)piperidin-1-ylmethyl]pyrimidin-4-amine] | significantly improved | significantly increased | 27.6%
2 | 60.1% | 0.44 | Cc1ncc(CN2CCC(c3cncc(F)c3)CC2)cn1 [Example 33, 5-[4-(5-Fluoropyridin-3-yl)piperidin-1-ylmethyl]-2-methylpyrimidine] | – | – | –
3 | 81.7% | 5.51 | Nc1ncc(CN2CCC(c3cccnc3)CC2)cn1 [Example 37] | – | – | –
